Consider twelve compounds from ChEMBL document CHEMBL1130698, “Design and synthesis of new potent, silent 5-HT1A antagonists by covalent coupling of aminopropanol derivatives with selective serotonin reuptake inhibitors” (Bioorg Med Chem Lett, 1998).

The target of experiment [1] is T1, 5-hydroxytryptamine receptor 1A (Homo sapiens) (UniProt P08908).
T1 sequence (whole entry): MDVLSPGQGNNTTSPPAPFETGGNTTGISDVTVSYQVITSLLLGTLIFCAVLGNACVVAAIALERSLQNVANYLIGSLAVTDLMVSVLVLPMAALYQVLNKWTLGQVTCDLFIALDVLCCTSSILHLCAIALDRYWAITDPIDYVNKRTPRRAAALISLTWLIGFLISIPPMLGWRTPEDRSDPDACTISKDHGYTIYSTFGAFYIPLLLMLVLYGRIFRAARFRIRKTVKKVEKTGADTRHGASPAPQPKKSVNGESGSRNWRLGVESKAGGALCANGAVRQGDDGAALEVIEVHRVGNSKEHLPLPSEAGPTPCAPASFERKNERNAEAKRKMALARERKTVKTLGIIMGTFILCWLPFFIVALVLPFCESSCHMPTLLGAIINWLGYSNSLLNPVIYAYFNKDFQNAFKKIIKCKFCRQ
The experiment in a line: Antagonistic potency as binding affinity of 5-HT stimulated [35S]GTP gamma S to human 5-HT1A receptor. In kind it is functional.

In experiment [2] the target is T2, 5-hydroxytryptamine receptor 1A (Homo sapiens, UniProt P08908).
T2 sequence (P08908 whole entry): T1 sequence (whole entry)
The experiment in a line: Displacement of [3H]8-OH-DPAT from human 5-HT1A receptor.

`CCN(CC)C(=O)[C@@]1(c2ccccc2)C[C@H]1CNCC(O)COc1cccc2[nH]ccc12` (some centres undefined) gave an antagonist equilibrium constant (Kb) in experiment [1] of 14.8 nM. In experiment [2], this compound showed a Ki of 45.4 nM.

The compound `O[C@@H](CNCC[C@H](Oc1ccc(C(F)(F)F)cc1)c1ccccc1)COc1cccc2[nH]ccc12` showed a Kb in experiment [1] of 0.2 nM. Besides, the Ki in experiment [2] amounted to 7.8 nM.

For the compound `O[C@@H](COc1cccc2[nH]ccc12)CN1CC[C@@H](c2ccc(F)cc2)[C@H](COc2ccc3c(c2)OCO3)C1`, the antagonist equilibrium constant (Kb) in experiment [1] worked out at 7.5 nM. Further, in experiment [2], the inhibition constant Ki turned out to be 15.7 nM.

In experiment [1], `OC(CNCCC(Oc1ccc(C(F)(F)F)cc1)c1ccccc1)COc1ccccc1C1CCCC1` (centres undefined) yielded a Kb of 15.2 nM. Besides, the Ki in experiment [2] came to 36.4 nM.

Compound `OC(CNCCCCCCNCCC(Oc1ccc(C(F)(F)F)cc1)c1ccccc1)COc1cccc2ccccc12` (centres undefined) displayed a Kb in experiment [1] of 1730 nM. Also, the inhibition constant (Ki) in experiment [2] came out at 391 nM.

For the compound `O[C@H](CNCC[C@H](Oc1ccc(C(F)(F)F)cc1)c1ccccc1)COc1cccc2[nH]ccc12`, the Kb in experiment [1] was found to be 1.4 nM. The compound further yielded an inhibitory constant (Ki) in experiment [2] of 60.3 nM.

Compound `OC(CNCCCCCCN1CC[C@H](c2ccc(F)cc2)[C@@H](COc2ccc3c(c2)OCO3)C1)COc1cccc2[nH]ccc12` (some centres undefined) had an antagonist equilibrium constant (Kb) in experiment [1] of 4.3 nM. Besides, the inhibition constant Ki in experiment [2] is 6.7 nM.

In turn, `OC(CNCCC(Oc1ccc(C(F)(F)F)cc1)c1ccccc1)COc1cccc2[nH]ccc12` (centres undefined) came in with a Kb in experiment [1] of 2.2 nM. The inhibitory constant (Ki) in experiment [2] was found to be 18.7 nM.

For `O[C@@H](CNCC[C@H](Oc1ccc(C(F)(F)F)cc1)c1ccccc1)COc1cccc2ccccc12`, in experiment [1], the antagonist equilibrium constant (Kb) worked out at 37.9 nM. This compound came in with an inhibitory constant (Ki) in experiment [2] of 32.9 nM.

Regarding `OC(CNCCCCCCN1CC[C@H](c2ccc(F)cc2)[C@@H](COc2ccc3c(c2)OCO3)C1)COc1cccc2ccccc12` (some centres undefined), in experiment [1], the Kb came out at 188 nM. Moreover, in experiment [2], affinity was put at a Ki of 156 nM.

Compound `O[C@H](CNCC[C@H](Oc1ccc(C(F)(F)F)cc1)c1ccccc1)COc1cccc2ccccc12` showed a Kb in experiment [1] of 388 nM. In experiment [2], this compound had an inhibitory constant (Ki) of 142 nM.

For `O[C@H](COc1cccc2[nH]ccc12)CN1CC[C@@H](c2ccc(F)cc2)[C@H](COc2ccc3c(c2)OCO3)C1`, the Kb in experiment [1] worked out at 0.7 nM. In addition, in experiment [2], the Ki was found to be 5.9 nM.
